US20190240297A1, “TREATMENT OF INFLAMMATORY BOWEL DISEASE” (UNIVERSITÉ LAVAL, priority 2016, published 2019)

Columns and labels:
[1] = test system: DSS-induced colitis; experiment: DSS-induced acute colitis, disease activity index (DAI) after intrarectal injection; assay type: in vivo, mouse
Description: (§1) All mice were treated or not (control mice) with 3% (w/v) DSS (molecular weight: 42 kDa) added to the drinking water for 7 days. Disease activity index (DAI) was evaluated daily by scoring percent of weight loss, intestinal bleeding (no blood, presence of blood), and stool consistency (normal stool, loose stool, or diarrhea) as previously described (Berberat P, 2005). For intrarectal injection mice were anesthetized and stool that may be present in distal colon was removed with pressure by fingertips to the posterior end of the animal. A 5F infant feeding tube catheter was inserted 4 cm (measured from the midway point between the 2 catheter side ports) into the colon. At this point, 100 μL of P2Y6 antagonist (MRS 2578 CAS number 711019-86-2, 10 μM), apyrase (4 Units/mice) or their vehicles DMSO or PBS respectively was administered slowly. Following the injection of the solution, animals were positioned head-down for 90 sec to avoid loss of the injected solution. Mice were euthanized 8 hr after the last intrarectal injection, tissue and plasma were isolated for experimental outcomes.

[2] = test system: DSS-induced colitis; experiment: In vivo intestinal permeability assay (FITC-dextran flux from intestine to plasma) in DSS-treated mice; design: species or system mouse
Description: as §1, with “For” for “All mice were treated or not (control mice) with 3% (w/v) DSS (molecular weight: 42 kDa) added to the drinking water for 7 days. Disease activity index (DAI) was evaluated daily by scoring percent of weight loss, intestinal bleeding (no blood, presence of blood), and stool consistency (normal stool, loose stool, or diarrhea) as previously described (Berberat P, 2005). For”
Intestinal permeability was assessed with fluorescein-labeled dextran (FITC-dextran) as described previously with some modification (Ashleigh Hansen, 2013). All mice were administrated by oral gavage with FITC-dextran (60 mg/[…] of mouse) 4 h after the intrarectal injection of MRS 2578, apyrase or vehicle (DMSO or PBS). Another 4 hours later, mice were euthanized and whole blood was obtained by cardiac puncture. Plasma was isolated and the movement of FITC-flux from colonic lumen into the plasma was measured by fluorometry at 488 nm. Data are expressed as total quantity of dextran-FITC in 100 μl of plasma.

[3] = test system: IEC monolayers; experiment: In vitro intestinal permeability assay (FITC-dextran) on DSS-treated IEC monolayers; assay type: cell-based, mouse; details: WT and Entpd8-/- IEC, DSS 3% 24 hours; 10 μM added 6 hours after DSS for last 18 hours (FIG. 14A)
Text: (§2) Human colon pieces were recuperated and washed several times with D-PBS containing Fetal Bovine Serum (FBS), antibiotics, antifungal and gentamycin until the solution is clear. Epithelial unit containing stem cells (crypts) were isolated from human samples (as prepared above) or from the intestine of 10-12 weeks old mice by dissection and dissociated with collagenase type I (collagenase XI, DTT and dispase for human). Briefly, the longitudinal muscle layer from the colons were excised, washed with ice-cold Mg^2+ and Ca^2+ free Salt Solution (PBS) and then digested with 75 U/mL collagenase type I or collagenase XI. The digestion was stopped with Dulbecco's Modified Eagles Medium (DMEM/F12) containing 10% v/v foetal bovine serum (FBS). L-glutamine, Hepes. […]
In other experiments, murine IEC were grown on permeable supports, stimulated on the apical chamber with DSS 3% for 6 hours then the P2Y6 antagonist MRS 2578 (10 μM) was added for the following 18 hours. The supernatant from basolateral chamber was collected and KC secretion was evaluated by Elisa.
Intestinal permeability was assessed with fluorescein-labeled dextran (FITC-dextran) as described previously with some modification (Ashleigh Hansen 2013). […] 4 hours later, samples were taken from the bottom chambers and fluorescence intensity in the samples was measured. Data were expressed as total quantity of dextran-FITC in supernatant.

[4] = test system: IEC; experiment: KC secretion by DSS-treated IEC (ELISA of basolateral supernatant); assay type: cell-based, mouse; details: WT and Entpd8-/- IEC, DSS 3% 24 hours; 10 μM added 6 hours after DSS for last 18 hours (FIG. 14B)
Text: as §2, with “Hepes. N-2 supplement, B-27 supplement and antibiotics. The digestion mixture was filtered with 70 μm filter and the effluent was centrifuged twice at 50×g for 5 min at 4° C.” for “Hepes.”
In other experiments, murine IEC were grown on permeable supports, stimulated on the apical chamber with DSS 3% for 6 hours then the P2Y6 antagonist MRS 2578 (10 μM) was added for the following 18 hours. The supernatant from basolateral chamber was collected and KC secretion was evaluated by Elisa. […]

[5] = target: T1, P2Y6 receptor (Mus musculus, UniProt Q9ERK9); experiment: UDP stimulation of murine differentiated IEC, KC expression by qPCR; assay type: cell-based; details: 100 μM for 5 hours (FIG. 13A)
T1 construct: endogenous in cells; host or cells: primary differentiated intestinal epithelial cells from colon crypts of WT and Entpd8-/- mice
T1 sequence (Q9ERK9 whole entry): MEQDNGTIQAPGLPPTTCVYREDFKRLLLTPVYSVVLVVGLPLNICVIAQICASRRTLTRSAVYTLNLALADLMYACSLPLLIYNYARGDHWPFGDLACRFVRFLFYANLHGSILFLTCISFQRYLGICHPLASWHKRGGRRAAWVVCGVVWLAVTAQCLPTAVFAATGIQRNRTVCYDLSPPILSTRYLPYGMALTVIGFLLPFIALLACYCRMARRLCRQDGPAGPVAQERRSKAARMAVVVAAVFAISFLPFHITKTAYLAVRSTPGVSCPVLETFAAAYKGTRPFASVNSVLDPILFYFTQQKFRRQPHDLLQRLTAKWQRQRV
Text: as §2, with “Hepes. N-2 supplement, B-27 supplement and antibiotics. The digestion mixture was filtered with 70 μm filter and the effluent was centrifuged twice at 50×g for 5 min at 4° C.” for “Hepes.”
(§3) Murine and human differentiated IEC were grown on plates and stimulated with UDP (100 μM) for 5 hours then the expression of KC (for mouse) and CXCL8 (for human) were evaluated by qPCR.
(§4) Genomic DNA was extracted from the tail of WT and Entpd8^−/− mice using Direct PCR Lysis Reagent to perform PCR using specific primers for NTPDase8 gene and neomycin as mentioned above. […] Primer sequences for cytokine analysed were purchased from Qiagen.

[6] = target: T2, P2Y6 receptor (Homo sapiens, UniProt Q15077); experiment: UDP stimulation of human differentiated IEC, CXCL8 expression by qPCR; assay type: cell-based; details: 100 μM for 5 hours, 1 patient (FIG. 13B)
T2 construct: endogenous in cells; host or cells: primary differentiated intestinal epithelial cells from human colon crypts (1 patient)
T2 sequence (Q15077 whole entry): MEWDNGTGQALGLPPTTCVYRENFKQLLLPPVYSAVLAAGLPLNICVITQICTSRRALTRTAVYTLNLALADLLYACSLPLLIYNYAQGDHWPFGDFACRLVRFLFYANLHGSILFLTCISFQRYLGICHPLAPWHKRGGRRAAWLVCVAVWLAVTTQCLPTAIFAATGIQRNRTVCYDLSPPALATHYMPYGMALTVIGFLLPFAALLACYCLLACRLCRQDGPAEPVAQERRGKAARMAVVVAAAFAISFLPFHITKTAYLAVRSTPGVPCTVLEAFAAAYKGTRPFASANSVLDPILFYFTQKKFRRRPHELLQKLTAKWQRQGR
Text: as §2, with “Hepes. N-2 supplement, B-27 supplement and antibiotics. The digestion mixture was filtered with 70 μm filter and the effluent was centrifuged twice at 50×g for 5 min at 4° C.” for “Hepes.”
as §3, §4

S=C=Nc1cccc(NC(=S)NCCCCNC(=S)Nc2cccc(N=C=S)c2)c1 [MRS 2578]
Disease activity index (DAI) / inflammation ([1]; Entpd8-/- mice, 3% DSS 7 days, 10 μM intrarectally daily day 2 to day 7, vs DSS alone (FIG. 10A)): reduced inflammation and the DAI | Disease activity index (DAI) / inflammation ([1]; WT mice, 3% DSS 7 days, 10 μM intrarectally daily day 2 to day 7, vs DSS alone (FIG. 10C)): reduced inflammation and the DAI | Intestinal permeability, FITC-dextran flux from intestine to plasma ([2]; Entpd8-/- and WT mice, day 7, 10 μM intrarectally day 2 to day 7 (FIG. 10B, D)): significantly ameliorated the permeability | Epithelial permeability (FITC-dextran in basolateral chamber) [3]: decreasing epithelial permeability | KC (chemokine) secretion [4]: decreasing epithelial permeability and chemokines secretion

O=c1ccn([C@@H]2O[C@H](COP(=O)(O)OP(=O)(O)O)[C@@H](O)[C@H]2O)c(=O)[nH]1 [UDP]
KC expression (mRNA) [5]: significant increase | CXCL8 expression (mRNA) [6]: significant increase

apyrase
Protection from colitis as determined by DAI ([1]; WT mice, DSS, 4 U/mice intrarectally daily day 2 to day 7, vs PBS (FIG. 11A)): fully protected | Disease activity index (DAI) / inflammation ([1]; WT mice, DSS, 4 U/mice intrarectally in late phase, day 5 to day 7, vs PBS (FIG. 11C)): reduced inflammation | Protection from colitis as determined by permeability measurements ([2]; WT mice, 4 U/mice intrarectally daily day 2 to day 7, vs PBS (FIG. 11B)): fully protected
